Reference: US4072686A, “1-(3,3,3-Triarylalkyl)-4-phenyl-piperidinealkanols” (G. D. Searle & Co., priority 1976, dated 1978)
Like-named read-outs stand apart in the source and are kept apart here.

Key:
[1] = Mouse tail clip test (analgesia); format: in vivo; details: at 100 and 30 mpk
Procedure: (§1) The assessment of the analgesic effect of the instant compounds was conducted in the mouse hot plate and tail clip tests.
(§2) A special clip is applied to the base of the tail of the mouse (adult male weighing 18-25 grams) and the time for the animal to turn around to bite as it is measured. The sensitivity of each mouse is determined one-half hour prior to drug administration. Only those mice attempting to bite the clip are included in the experiment. The test compound is then administered intragastrically and the response to placement of the clip is determined at 30, 60, 90 and 120 minutes after treatment. A response is considered positive if the animal takes more than 2 times the pre-drug time to bite at the clip at any of these time intervals. A test compound is considered active when 50 percent or more of the animals used show a positive response.

[2] = Castor oil induced diarrhea in the rat; format: in vivo, rat (adult Charles River male); details: for Potency (relative to diphenoxylate hydrochloride): oral, diphenoxylate = 1.0
Procedure: CASTOR OIL INDUCED DIARRHEA IN THE RAT
Adult Charles River male rats were fasted in community cages for 24 hours prior to the test, with free access to water. The compound was administered intragastrically (suspended on 0.5% methylcellulose) one hour prior to the administration of castor oil at the dose of 1.0 ml/rat intragastrically. The rats were then observed for the presence or absence of diarrhea, at hourly intervals for up to 8 hours past administration of castor oil. The median effective dose values at each hourly interval were calculated for the compound using the method of Berkson (1953). […] For example:
Comparative Oral Antidiarrheal Potency and Duration of 1-(3,3,3-triphenylpropyl)-4-phenyl-4-piperidinemethanol hydrochloride (a) to Diphenoxylate hydrochloride in the Rat Castor Oil Diarrhea Test

[3] = Analgesic effect in the mouse hot plate and tail clip tests; format: in vivo
Procedure: as §1
A mouse (adult male weighing 18-25 grams) is placed in a restraining cylinder on a hot plate with the temperature controlled at 55° ± 0.3° C. The reaction time of the mouse to lick a foot or jump is measured at 60, 40 and 20 minutes before and 30, 60, 90 and 120 minutes after administration of the test compound. The "normal" reaction time is measured as the median of the three pretreatment reaction times. A positive response consists of a reaction time greater than twice the normal time at any of the post treatment times. A dose of the test compound is considered active when 50 percent or more of the animals used show a positive response.
as §2, with “A test compound is considered active when 50 percent or more of the animals used show a positive response.” left out

[4] = Rat2, oral (intragastric), rat, 2 hours after castor oil, read-out: ED50
[5] = oral (intragastric), rat, 3 hours after castor oil, read-out: ED50
[6] = oral (intragastric), rat, 4 hours after castor oil, read-out: ED50
[7] = oral (intragastric), rat, 5 hours after castor oil, read-out: ED50
[8] = oral (intragastric), rat, 6 hours after castor oil, read-out: ED50
[9] = oral (intragastric), rat, 7 hours after castor oil, read-out: ED50
[10] = oral (intragastric), rat, 8 hours after castor oil, read-out: ED50

Structure (SMILES) | ED50 [2, 4] [mg/kg] | ED50 [2, 5] [mg/kg] | ED50 [2, 6] [mg/kg] | ED50 [2, 7] [mg/kg] | ED50 [2, 8] [mg/kg] | ED50 [2, 9] [mg/kg] | ED50 [2, 10] [mg/kg] | also measured
CCOC(=O)C1(c2ccccc2)CCN(CCC(c2ccccc2)(c2ccccc2)c2ccccn2)CC1 [ethyl 1-[3,3-diphenyl-3-(2-pyridyl)propyl]-4-phenyl-4-piperidinecarboxylate] | – | – | – | – | – | – | – | analgesia (mouse tail clip test) [1]: weak analgesia; ED50 ([2]; Rattus norvegicus, po, 2 h, read-out: ED50 2 hrs. post castor oil): 0.04 mg/kg
Cl.OCC1(c2ccccc2)CCN(CCC(c2ccccc2)(c2ccccc2)c2ccccc2)CC1 [(a), 1-(3,3,3-triphenylpropyl)-4-phenyl-4-piperidinemethanol hydrochloride] | 0.14 | 0.18 | 0.24 | 0.28 | 0.28 | 0.28 | 0.35 | Potency (relative to diphenoxylate hydrochloride) ([2]; rat, 2 hours after castor oil): 1.35; Potency (relative to diphenoxylate hydrochloride) ([2]; rat, 3 hours after castor oil): 2.25; Potency (relative to diphenoxylate hydrochloride) ([2]; rat, 4 hours after castor oil): 3.25; Potency (relative to diphenoxylate hydrochloride) ([2]; rat, 5 hours after castor oil): 4.33; Potency (relative to diphenoxylate hydrochloride) ([2]; rat, 6 hours after castor oil): 5.71; Potency (relative to diphenoxylate hydrochloride) ([2]; rat, 7 hours after castor oil): 6.44; Potency (relative to diphenoxylate hydrochloride) ([2]; rat, 8 hours after castor oil): 5.42
OCC1(c2ccccc2)CCN(CCC(c2ccccc2)(c2ccccc2)c2ccccc2)CC1 [1-(3,3,3-triphenylpropyl)-4-phenyl-4-piperidinemethanol] | – | – | – | – | – | – | – | ability to inhibit gastrointestinal motility ([2]; intragastric, rat): very active; analgesic effect [3]: very little analgesic effect
CCOC(=O)C1(c2ccccc2)CCN(CCC(C#N)(c2ccccc2)c2ccccc2)CC1 [Diphenoxylate, reference compound] | 0.22 | 0.36 | 0.71 | 1.21 | 1.62 | 1.85 | 1.93 | –
